The record followed here is patent publication US9522930B2, “Chartreusin analogues” (Leibniz-Institut Für Naturstoff-Forschung Und …, priority 2012, dated 2016).

Data set [1] deals with Mycobacterium vaccae 10670. Put plainly: Antimicrobial activity (MIC), test strain Mycobacterium vaccae 10670. It is filed as cell-based. The note with it: Mycolicibacterium vaccae; Test strain: Mycobacterium vaccae 10670; read-out: Antimicrobial MIC value, Mycobacterium vaccae. The source says:
Antimicrobial (MIC value [μM]), cytotoxic (CC50 [μM] for HeLa) and antiproliferative (GI50 [μM] for HUVEC, K-562, HT-29 and MEL-HO) activities of chartreusin and its derivatives. Test strain: Mycobacterium vaccae 10670.

In data set [2] the test system is human umbilical vein endothelial cells HUVEC (ATCC CRL-1730). Put plainly: Growth inhibition (antiproliferative effect) of HUVEC. It is filed as cell-based. The settings on record: for GI50: Homo sapiens, read-out: antiproliferative GI50, HUVEC.
Description: (§2) Compounds were assayed against human umbilical vein endothelial cells HUVEC (ATCC CRL-1730) and human chronic myeloid leukemia cells K-562 (DSM ACC 10) for their antiproliferative effects (GI50) and against human cervix carcinoma cells HeLa (DSM ACC 57) for their cytotoxic effects (CC50) as previously described (Scherlach, K., Partida-Martinez, L. P., Dahse, H. M. & Hertweck, C. Antimitotic rhizoxin derivatives from a cultured bacterial endosymbiont of the rice pathogenic fungus Rhizopus microsporus. Journal of the American Chemical Society 128, 11529-11536 (2006)).
For data set [3], the system named is human chronic myeloid leukemia cells K-562 (DSM ACC 10). Put plainly: Growth inhibition (antiproliferative effect) of K-562. The data set is classed as cell-based. The note with it: for GI50: Homo sapiens, K562, read-out: antiproliferative GI50, K-562.
Description: as §2
Data set [4] has as its system human HT-29 colon adenocarcinoma cells (ACC 299). Put plainly: Growth inhibition of HT-29 in the presence or absence of light. The data set is classed as cell-based. How it is done: (§1) The human HT-29 colon adenocarcinoma cells (ACC 299) and the human MEL-HO (ACC 62) melanoma cells were grown as previously described (Ueberschaar, N.; Dahse, H.-M.; Bretschneider, T.; Hertweck, C. Angew. Chem. Int. Ed. 2013, 52, 6185-6189).

Data set [5] relates to human MEL-HO (ACC 62) melanoma cells. Put plainly: Growth inhibition of MEL-HO in the presence or absence of light. It is filed as cell-based. How it is done:
as §1

Data set [6] deals with Hs27 foreskin fibroblast cells (ATCC, CRL-1634). Put plainly: Growth inhibition of Hs27 in the presence or absence of light. It is filed as cell-based, human. The note with it: for GI50: Homo sapiens, 72 hours. An excerpt: In order to verify the extraordinary in vitro photo induced activity a human foreskin fibroblast cell line (Hs27) has been chosen to evaluate the antiproliferative activity against human cells. During this assay a control group without light has been tested under standard conditions. One group was irradiated with a very homogenous LED cluster under the same conditions. […] This indicates the high potential of this new chartreusin-like structure motive as a drug for epithel cell carcinomas. Not only superficial areas like the skin in case of melanoma can be irradiated also endoscopic accessible areas like the bladder, colon, esophageal or laryngeal cancers are conceivable for a treatment.
The Hs27 foreskin fibroblast cells (ATCC, CRL-1634) were grown in RPMI 1640 (CAMBREX 12-167F) supplemented with 500 μl/l gentamicin sulfate (Cambrex 17-518Z), 10% heat inactivated fetal bovine serum (PAA A15-104), at 37° C. in plastic flasks (NUNC) in a humidified atmosphere containing 5% CO2.
The adherent cells of Hs27 were harvested at the logarithmic growth phase after soft trypsinization using 0.25% trypsin in PBS containing 0.02% EDTA (Biochrom KG L2163).
Hs27 cells were seeded with 1×10^4 cells per 0.1 mL per well of the 96-well microplates (NUNC 167008). Then, the plates were prepared with dilutions of the compounds.
The influence of the different dilutions of compounds in the absence or presence of light (distance to the cells: 4 cm) were assayed for 72 hours at 37° C. in a humidified atmosphere containing 5% CO2. After incubation time, the effect of compounds in the absence or presence of light were analyzed in compare to negative control.
For this, the adherent Hs27 cells were fixed by glutaraldehyde (MERCK 1.04239.0250) and stained with a 0.05% solution of methylene blue (SERVA 29198) for 15 min. After gentle washing, the stain was eluted by 0.2 mL of 0.33 N HCl in the wells. The optical densities were measured at 660 nm in a microplate reader (Tecan “Sunrise”, Austria). Under the experimental conditions, the signals from the methylene blue are proportional to the number of viable cells.

In data set [7] the test system is defined DNA fragments (1.5 kb). Put plainly: Laser-induced DNA-adduct assay, gel electrophoresis with a specified DNA fragment. The settings on record: 1% agarose gel; for electrophoretic band shift of DNA fragment, irradiated: blue laser 405 nm, 20 mW, 30 sec. As to the method: However, the situation changed substantially under photoinducing conditions. A GaN laser has been used for an induced DNA-adduct assay because a laser warrants high spectral purity combined with a high power density. Furthermore, the emission wavelength (405 nm) fits to the absorption maximum of chartreusin, which is a prerequisite to efficiently activating the molecule.
For the assay defined DNA fragments (1.5 kb) were treated with either chartreusin or 1-vinylchartreusin, and the effect of blue laser irradiation was compared to negative controls incubated in the dark or with daylight.
DNA-Adduct formation was carried out using a pure specified DNA fragment with the following sequence:
8 μL of water, 2 μL of DNA (25.7 ng/μL) were either directly treated with 2 μL loading buffer or were treated additionally with 0.1 μL (1 mg/mL in DMSO) substrate. The solution was irradiated with a laser (405 nm, 20 mW) for 30 sec. and then treated with loading buffer. The DNA was loaded on 1% agarose gel with ethidium bromide operating at 120 V (FIG. 2).

For data set [8], the system named is vancomycin-resistant Enterococcus (VRE). Put plainly: VRE assay (MIC). The data set is classed as cell-based. The settings on record: read-out: MIC against VRE.
Data set [9] in a line: in vitro. The note with it: human.
Description: as §2
Data set [10] deals with methicillin-resistant Staphylococcus aureus (MRSA). Put plainly: Antibiotic activity against MRSA. The data set is classed as cell-based.
Data set [11] can be described thus: Cytotoxicity against HeLa. The settings on record: human, HeLa cells (human cervix carcinoma, DSM ACC 57).
Description: as §2
In data set [12] the test system is human cervix carcinoma cells HeLa (DSM ACC 57). Put plainly: Cytotoxicity against HeLa. The note with it: HeLa, standard conditions.
Description: as §2
Setting [13] is: Homo sapiens, HT-29, 8 h, HT-29, 420 nm, 3 × 8 h, read-out: antiproliferative GI50, HT-29, 420 nm, 3 × 8 h.
[14] abbreviates: Homo sapiens, HT-29, HT-29, w/o light, read-out: antiproliferative GI50, HT-29, w/o light.
[15] abbreviates: Homo sapiens, HT-29, HT-29, with light (blue LED), read-out: GI50 with light, HT-29.
Setting [16] is: Homo sapiens, HT-29, HT-29, without light (absence of light), read-out: GI50 without light, HT-29.
[17] abbreviates: 8 h, read-out: antiproliferative GI50, Mel-HO, 420 nm, 3 × 8 h.
Where [18] appears, read: read-out: antiproliferative GI50, Mel-HO, w/o light.
The mark [19] stands for this setting: Hs27, with light vs without light.

In brackets after ≈: the same amount, converted by molar mass. Read-outs that look alike come from different tables or passages of the source.

As to `CO[C@H]1[C@@H](O)[C@@H](C)O[C@H](O[C@H]2[C@H](Oc3cccc4c(O)c5c(=O)oc6ccc(C)c7c(=O)oc(c34)c5c67)O[C@H](C)[C@H](O)[C@@H]2O)[C@@H]1O` [Chartreusin], the MIC in data set [1] was 1.2 µM (≈ 0.769 µg/mL); in data set [8], 9.59 to 9.76 µM (≈ 6.14 to 6.25 µg/mL). In addition, the GI50 in data set [2] was 6.24 µM; in data set [3], 1.56 µM; in data set [4] (setting [13]) it was 7.65 µM; in data set [4] (setting [14]) it was 7.96 µM; in [4] (setting [15]), 7.65 µM; in data set [4] (setting [16]), 7 to 9.4 µM. Besides, the figures for the GI50 in [5] (setting [17]) and in data set [5] (setting [18]) were 2.34 µM and 1.56 µM, respectively. Moreover, in data set [6] (setting [19]), the “effect of light on antiproliferative activity, Hs27” value was “not affected by treatment with light”. In addition, the “electrophoretic band shift of DNA fragment, irradiated” value in data set [7] is given as “electrophoretic properties of the DNA fragment could be fully reserved”. Further, the CC50 in data set [9] turned out to be 12.6 µM.
As for `C=Cc1ccc2oc(=O)c3c(O)c4cccc(O[C@@H]5OC(C)[C@H](O)[C@H](O)C5O[C@H]5OC(C)[C@H](O)C(OC)[C@H]5O)c4c4oc(=O)c1c2c34` (stereo partly shown) [Vinylchartreusin, 1-Vinylchartreusin], the MIC in data set [1] is 4.8 µM (≈ 3.13 µg/mL); in data set [8], 9.59 to 9.76 µM (≈ 6.26 to 6.37 µg/mL). Further, the GI50 in [2] worked out at 32.8 µM; in [3] it was 3.06 µM; in data set [4] (HT-29, without light (absence of light), read-out: GI50 without light, HT-29), 7.1 µM; in [4] (setting [13]), 0.61 µM; in data set [4] (setting [14]), 7.05 µM; in [4] (setting [15]), 0.6 µM. Further, the GI50 was 7 to 9.4 µM in data set [4] (setting [16]); 0.08 µM in data set [5] (setting [17]); 0.11 µM in data set [5] (setting [18]); 0.5 mg/L (≈ 0.766 µM) in [6] (light or radiation study, Hs27, irradiated with LED cluster, read-out: GI50 value with light, Hs27); 6.8 mg/L (≈ 10.4 µM) in [6] (Hs27, without light, read-out: GI50 value without light, Hs27). Further, the “less active than chartreusin, HUVEC” value in [2] (standard conditions (no photoinduction)) was “about 4 fold”. The “activity relative to chartreusin and homochartreusin, K562” value in data set [3] (K562, standard conditions) was “only slightly lower than chartreusin and homochartreusin”. Also, the “GI50 with light lower than without light, Hs27” value in data set [6] (setting [19]) is “more than 10 fold”. The “electrophoretic band shift of DNA fragment, irradiated” value in data set [7] is recorded as “clear band shift to a higher molecular mass”. Further, in data set [7] (not irradiated (dark or daylight)), the “electrophoretic band shift of DNA fragment, not irradiated” value was “no shift”. Further, in data set [10], the “antibiotic activity against MRSA relative to chartreusin and ciprofloxacin” value was “as active as the natural product and are even more potent than the reference antibiotic ciprofloxacin”. In addition, the CC50 in data set [11] amounted to 24.7 µM. The “activity relative to chartreusin and homochartreusin, HeLa” value in data set [12] is “only slightly lower than chartreusin and homochartreusin”.
